Reference: US11917995B2, “Fungicidal compositions of mefentrifluconazole” (BASF AGRO B.V., priority 2018, dated 2024)

Key:
Type in all cases: cell-based
[1] = test system: Colletotrichum truncatum; assay: Microtiterplate test: activity against Colletotrichum truncatum (Colldu); conditions: single active compound, 7 days after inoculation
Description: (§1) The visually determined percentages of infected leaf areas are converted into efficacies in % of the untreated control.
(§2) The efficacy (E) is calculated as follows using Abbot's formula: E=(1−α/β·100 • α corresponds to the fungicidal infection of the treated plants in % and • β corresponds to the fungicidal infection of the untreated (control) plants in %
(§3) An efficacy of 0 means that the infection level of the treated plants corresponds to that of the untreated control plants; an efficacy of 100 means that the treated plants were not infected. The expected efficacies of active compound combinations may be determined using Colby's formula (Colby, S. R. “Calculating synergistic and antagonistic responses of herbicide combinations”, Weeds, 15, pp. 20-22, 1967) and compared with the observed efficacies.
(§4) Colby's formula: E=x+y−x·y/100 • E expected efficacy, expressed in % of the untreated control, when using the mixture of the active compounds A and B at the concentrations a and b • x efficacy, expressed in % of the untreated control, when using the active compound A at the concentration a • y efficacy, expressed in % of the untreated control, when using the active compound B at the concentration b.
(§5) The active compounds were formulated separately as a stock solution having a concentration of 10000 ppm in dimethyl sulfoxide.
(§6) The stock solutions were mixed according to the ratio, pipetted onto a micro titer plate(MTP) and diluted with water to the stated concentrations. Spores of the respective pathogen in an aqueous biomalt or yeast-bactopeptone-glycerine solution were then added. The plates were placed in a water vapor-saturated chamber at a temperature of 18° C. Using an absorption photometer, the MTPs were measured at 405 nm 7 days after the inoculation.
(§7) The measured parameters were compared to the growth of the active compound-free control variant (100%) and the fungus-free and active compound-free blank value to determine the relative growth in % of the pathogens in the respective active compounds.

[2] = test system: Septoria tritici; assay: Microtest: activity against leaf blotch on wheat caused by Septoria tritici (Septtr); conditions: single active compound, 0.001 ppm; 7 days after inoculation
Description: as §1, §2
(§8) An efficacy of 0 means that the infection level of the treated plants corresponds to that of the untreated control plants; an efficacy of 100 means that the treated plants were not infected. The expected efficacies of active compound combinations may be determined using Colby's formula (Colby, S. R. “Calculating synergistic and antagonistic responses of herbicide combinations”, Weeds, 15, pp. 20-22, 1967) and compared with the observed efficacies. […]
The stock solutions were mixed according to the ratio, pipetted onto a micro titer plate (MTP) and diluted with water to the stated concentrations. […] Using an absorption photometer, the MTPs were measured at 405 nm 7 days after the inoculation.
as §7

[3] = test system: Sclerotinia sclerotiorum; assay: Microtiterplate test: activity against Sclerotinia sclerotiorum (Sclesc); conditions: single active compound, 0.25 ppm; 7 days after inoculation
Description: as §1, §2, §8
The stock solutions were mixed according to the ratio, pipetted onto a micro titer plate(MTP) and diluted with water to the stated concentrations. […] Using an absorption photometer, the MTPs were measured at 405 nm 7 days after the inoculation.
as §7

[4] = test system: Colletotrichum orbicularum; assay: Microtiterplate test: activity against Colletotrichum orbicularum (Collla); conditions: single active compound, 7 days after inoculation
Description: as §1, §2, §3, §4, §5, §6, §7

| SMILES | Observed efficacy ([1]; 4 ppm) [%] | Observed efficacy [2] [%] | Observed efficacy [3] [%] | Observed efficacy ([4]; 0.25 ppm) [%] | Observed efficacy ([1]; 0.063 ppm) [%] | Observed efficacy ([1]; 0.25 ppm) [%] | Observed efficacy ([1]; 1 ppm) [%] | Observed efficacy ([4]; 1 ppm) [%] |
| --- | --- | --- | --- | --- | --- | --- | --- | --- |
| CCN(C)C=Nc1cc(C)c(Oc2ccccc2)cc1C [II-3, N′-(2,5-dimethyl-4-phenoxy-phenyl)-N-ethyl-N-methyl-formamidine] | 16 | 5 | 11 | 19 |  |  |  |  |
| CC(O)(Cn1cncn1)c1ccc(Oc2ccc(Cl)cc2)cc1C(F)(F)F (stereo not drawn) [Mefentrifluconazole, mefentrifluconazole] | 28 | 0 | 1 | 7 | 0 | 8 | 18 | 25 |
